# Laboratory results published in paper PMC6598759, “In vitro genotoxicity of nitroimidazoles as a tool in the search of new trypanocidal agents” (Memórias do Instituto Oswaldo Cruz, 2019).
# Read-outs that look alike come from different tables or passages of the source.
# Experiments:
# [1] = test system: whole human blood cells (WHBC); experiment: In vitro cytokinesis-block micronucleus assay (CBMN) with whole human blood cells
# Procedure: In vitro cytokinesis-block micronucleus assay (CBMN) with whole human blood cells (WHBC) - Heparinised WHBC samples were obtained by venipuncture from volunteers as described above. […] WHBC cultures exposed to mitomycin C (MMC) (1.0 µg/mL in water) (Bristol, USA) for 2 h or to N-deacetyl-N-methylcolchicine in water (Demecolcine: Sigma-Aldrich) 0.02 µg/mL for 28 h were used as positive control cultures. After the treatment, the WHBC cultures were centrifuged (900 rpm, 10 min) and washed with 5 mL PBS. […] CytB has cytokinesis-block activity leading to the formation of binucleate cells. […] The fixed cell suspension was dropped on a clean glass slide and the slide was air-dried on a heating plate (60 °C). Air-dried slides were stained with 60 µg/mL acridine orange in Sörensen buffer (0.03 M KH2PO4, 0.03 M Na2HPO4) for 3s, then they were embedded in distilled water and covered with a coverslip. MN showing bright green fluorescence were analysed using a fluorescence microscope at 400 X magnification. MN were scored in 2,000 binucleated cells (BNC) for culture and the number of the micronucleate cells (MNC) in 2,000 BNC was determined. Cytotoxicity was measured using the cytokinesis-block proliferation index (CBPI) and the replication index (RI) which were calculated from 500 cells. The CBPI indicates the average number of nuclei per cell, and may be used to calculate cell proliferation. The RI indicates the relative number of cell cycles per cell during the period of exposure to cytoB in treated cultures compared to control cultures and can be used to calculate the % cytostasis. CBPI was calculated according to the formula: CBPI = [(No. mononucleate cells) + (2 x No. binucleate cells) + (3 x No. multinucleate cells)] / N, where N indicates the total number of cells scored. RI (%) was calculated according to the formula:
# RI %=((No. binucleate cells) + (2 x No. multinucleate cells)) ÷ (Total number of cells)T/((No. binucleate cells) + (2 x No. multinucleate cells)) ÷ (Total number of cells)C x 100
# where T indicates treated cultures and C control cultures
# Cytotoxicity was evidenced in the occurrence of reduction in CBPI or RI of cultures treated by test substances when compared to control cultures. The measurement of cytotoxicity was used to select the concentrations of the test substance to be analysed for the presence of MN. […] However, it was adopted in this work as the maximum concentration in CBMN one that induced a proliferation inhibition not exceeding about 50% established by ICH S2 (R1) for lymphocyte cultures.
# The chi-square test for trend was performed to analyse if the increase of MNC was concentration-related.[30]
# [2] = test system: bloodstream trypomastigotes form Y strain of T. cruzi; settings: read-out: IC50/24 h (concentration that produces 50% lysis of the parasites), trypomastigote forms; cited from earlier work
# [3] = test system: whole human blood cells (WHBC); settings: cited from earlier work; for percentage decrease in cell viability: 2 h
# [4] = test system: whole human blood cells (WHBC); settings: 149-6,400 µM, 2 h, p > 0.1; cited from earlier work
structure (smiles),measurement,setting,value
Cn1c([N+](=O)[O-])cnc1-c1nnc(N)[nH]1 [Compound 4],CBPI,"[1]; 150 µM, 4 h",1.220
same,NMNC/2000 binucleated cells,"[1]; 150 µM, 4 h",28
same,RI (%),"[1]; 150 µM, 4 h",106%
same,CBPI,"[1]; 640 µM, 4 h",1.230
same,NMNC/2000 binucleated cells,"[1]; 640 µM, 4 h",36
same,RI (%),"[1]; 640 µM, 4 h",107%
same,CBPI,"[1]; 1,600 µM, 4 h",1.218
same,NMNC/2000 binucleated cells,"[1]; 1,600 µM, 4 h",44
same,RI (%),"[1]; 1,600 µM, 4 h",76%
same,CBPI,"[1]; 4,000 µM, 4 h",1.054
same,RI (%),"[1]; 4,000 µM, 4 h",22%
same,CBPI,"[1]; 10,000 µM, 4 h",1.052
same,RI (%),"[1]; 10,000 µM, 4 h",23%
same,maximum concentration used in MN analysis (inducing in the maximum 50% reduction of CBPI or RI),"[1]; 4 h, relative to solvent-control","1,600 μM"
same,concentrations with significant mutagenic effect (increase of MNC),"[1]; 4 h, p < 0.01 for 3, p < 0.05 for 4 and 7","1,600 μM"
same,result in the CBMN,[1]; overall call,clastogenic and/or aneugenic
same,IC50,[2],257 ± 53 µM
same,percentage decrease in cell viability,[3]; 149 µM,1.0%
same,percentage decrease in cell viability,[3]; 238 µM,1.0%
same,percentage decrease in cell viability,[3]; 382 µM,1.0%
same,percentage decrease in cell viability,[3]; 610 µM,0%
same,percentage decrease in cell viability,"[3]; 1,562 µM",1.0%
same,percentage decrease in cell viability,"[3]; 2,500 µM",1.0%
same,percentage decrease in cell viability,"[3]; 4,000 µM",0%
same,percentage decrease in cell viability,"[3]; 6,400 µM",0%
same,lethality variation range,"[3]; 149-6,400 µM, 2 h at 37 °C, compared to solvent-control",1-4%
same,DNA strand breaks compared to solvent-control,[4],did not cause DNA strand breaks
